According to patent US7381705B2, “Inhibitors of hepatitis C virus” (The Administrators Of The Tulane Educational Fund, priority 2004, dated 2008):
Read-outs that look alike come from different tables or passages of the source. Ends that are not written are not given here.

Columns and labels:
[1] = test system: HCV pseudotype (HIV core proteins, HCV E1 and E2 of strain H77); details: for Percent inhibition: 25 μM; for Inhibition of HCV pseudotype infectivity (in words): summary of Tables 7 and 8
HIV-1 = details: AIDS patients, clinical trials; cited from earlier work
[2] = HCV H77 1a E2 peptides at ~25 μM, Table 7, virus alone 448,123
[3] = HCV J4 1b E2 peptides at ~25 μM, Table 8, controls as in Table 7

Substance	Percent inhibition [1] [%]	Luciferase units [1, 2]	Luciferase units [1, 3]	Inhibition of HCV pseudotype infectivity (in words) [1]	HIV-1 load (HIV-1)
LLSTTQWQVLPCSFTTLP [compound 40, LLSTTQWQVLPCSFTTLP]	1.3	442,346 luciferase units (lumens)	–	–	–
LTPRCLVDYPYRLWHYPC [compound 107]	11.1	–	402,976 luciferase units (lumens)	–	–
MASCRPIDWFAQGWGPIT [compound 88, MASCRPIDWFAQGWGPIT]	7.9	–	412,776 luciferase units (lumens)	–	–
MYVGGVEHRLEAACNWTR [compound 35, MYVGGVEHRLEAACNWTR]	66.7	153,553 luciferase units (lumens)	–	–	–
NCNESLNTGWLAGLFYQH [compound 8, NCNESLNTGWLAGLFYQH]	74.6	113,650 luciferase units (lumens)	–	–	–
NNTRPPLGNWFGCTWMNS [compound 22, NNTRPPLGNWFGCTWMNS]	45.2	245,900 luciferase units (lumens)	–	–	–
NWTRGERCDLEDRDRSEL [compound 37, NWTRGERCDLEDRDRSEL]	−30.7	585,553 luciferase units (lumens)	–	–	–
PASQVCGPVYCFTPSPVV [compound 93]	9.7	–	409,220 luciferase units (lumens)	–	–
PNSSDQRPYCWHYAPRPC [compound 90]	5.5	–	423,326 luciferase units (lumens)	–	–
PTDCFRKHPEATYSRCGS [compound 28]	11.9	394,780 luciferase units (lumens)	–	–	–
PTDCFRKHPEATYTKCGS [compound 104]	6.3	–	419,876 luciferase units (lumens)	–	–
PVYCFTPSPVVVGTTDRS [compound 18, PVYCFTPSPVVVGTTDRS]	2.9	435,026 luciferase units (lumens)	–	–	–
PVYCFTPSPVVVGTTDRS [compound 94, PVYCFTPSPVVVGTTDRS]	30.4	–	311,736 luciferase units (lumens)	–	–
PYCWHYAPRPCGVVPASQ [compound 91]	69.1	–	160,883 luciferase units (lumens)	–	–
QILPCAFTTLPALSTGLI [compound 116, QILPCAFTTLPALSTGLI]	12.1	–	394,096 luciferase units (lumens)	–	–
QNIVDVQYLYGVGSSIAS [compound 44, QNIVDVQYLYGVGSSIAS]	79.6	91,266 luciferase units (lumens)	–	inhibitory	–
QVLPCSFTTLPALSTGLI [compound 41, QVLPCSFTTLPALSTGLI]	3.0	434,743 luciferase units (lumens)	–	–	–
RCGSGPWITPRCMVDYPY [compound 30]	−46.2	655,040 luciferase units (lumens)	–	–	–
RSELSPLLLSTTQWQVLP [compound 39, RSELSPLLLSTTQWQVLP]	11.6	400,756 luciferase units (lumens)	–	–	–
SIASWAIKWEYVVLLFLL [compound 46, SIASWAIKWEYVVLLFLL]	77.0	103,040 luciferase units (lumens)	–	inhibitory	–
SPVVVGTTDRSGAPTYSW [compound 19, SPVVVGTTDRSGAPTYSW]	32.7	301,406 luciferase units (lumens)	–	–	–

Substance	Percent inhibition [1] [%]	Luciferase units [1, 2]	Luciferase units [1, 3]	Inhibition of HCV pseudotype infectivity (in words) [1]	HIV-1 load (HIV-1)
SPVVVGTTDRSGVPTYSW [compound 95, SPVVVGTTDRSGVPTYSW]	−20.1	–	538,110 luciferase units (lumens)	–	–
SSGCPERLASCRRLTDFA [compound 10]	25.4	334,196 luciferase units (lumens)	–	–	–
SSGCPERMASCRPIDWFA [compound 87]	10.8	–	399,700 luciferase units (lumens)	–	–
TDFAQGWGPISYANGSGL [compound 12, TDFAQGWGPISYANGSGL]	6.8	417,706 luciferase units (lumens)	–	–	–
TDRSGVPTYSWGENETDV [compound 96, TDRSGVPTYSWGENETDV]	−21.5	–	544,596 luciferase units (lumens)	–	–
TGFFAALFYAHKFNSSGC [compound 51, TGFFAALFYAHKFNSSGC]	47.1	–	237,086 luciferase units (lumens)	–	–
TGLIHLHQNIVDVQYLYG [compound 43, TGLIHLHQNIVDVQYLYG]	92.8	32,283 luciferase units (lumens)	–	inhibitory	–
TKTCGGPPCNIGGVGNRT [compound 101]	−12.0	–	502,096 luciferase units (lumens)	–	–
TKVCGAPPCVIGGVGNNT [compound 25]	7.2	480,280 luciferase units (lumens)	–	–	–
TSLFSSGASQKIQLVNTN [compound 82, TSLFSSGASQKIQLVNTN]	61.4	–	173,156 luciferase units (lumens)	–	–
TTLPALSTGLIHLHQNIV [compound 42, TTLPALSTGLIHLHQNIV]	19.1	353,516 luciferase units (lumens)	–	–	–
TTLPALSTGLIHLHQNIV [compound 117, TTLPALSTGLIHLHQNIV]	19.8	–	359,236 luciferase units (lumens)	–	–
TYSWGANDTDVFVLNNTR [compound 20, TYSWGANDTDVFVLNNTR]	48.4	231,373 luciferase units (lumens)	–	–	–
TYSWGENETDVMLLNNTR [compound 97, TYSWGENETDVMLLNNTR]	51.2	–	218,673 luciferase units (lumens)	–	–
VGLLTPGAKQNIQLINTN [peptide 4, VGLLTPGAKQNIQLINTN]	97.6	10,620 luciferase units (lumens)	–	inhibitory	–
WMNSTGFTKTCGGPPCNI [compound 100]	−15.6	–	518,190 luciferase units (lumens)	–	–
WMNSTGFTKVCGAPPCVI [compound 24]	19.7	391,886 luciferase units (lumens)	–	–	–
YLYGVGSSIASWAIKWEY [compound 45, YLYGVGSSIASWAIKWEY]	94.5	24,703 luciferase units (lumens)	–	inhibitory	–
YTIFKVRMYVGGVEHRLE [compound 34, YTIFKVRMYVGGVEHRLE]	21.8	354,696 luciferase units (lumens)	–	–	–
enfuvirtide	–	–	–	–	substantially reduce
